The values below come from publication PMC6986724, “Crystal structure of PMGL2 esterase from the hormone-sensitive lipase family with GCSAG motif around the catalytic serine” (PLoS ONE, 2020).

The target of the test is T1, PMGL2 (uncultured bacterium, UniProt Z9SFY5SHV8, S173T/C202S, form not given).
T1 construct: recombinant, cloned into pET32a, poly-His tag; homodimer; GCSAG motif 172-176, catalytic Ser174, Asp272, His302; 319 residues visible in the mutant crystal
T1 sequence (Z9SFY5SHV8 1-343 S173T/C202S): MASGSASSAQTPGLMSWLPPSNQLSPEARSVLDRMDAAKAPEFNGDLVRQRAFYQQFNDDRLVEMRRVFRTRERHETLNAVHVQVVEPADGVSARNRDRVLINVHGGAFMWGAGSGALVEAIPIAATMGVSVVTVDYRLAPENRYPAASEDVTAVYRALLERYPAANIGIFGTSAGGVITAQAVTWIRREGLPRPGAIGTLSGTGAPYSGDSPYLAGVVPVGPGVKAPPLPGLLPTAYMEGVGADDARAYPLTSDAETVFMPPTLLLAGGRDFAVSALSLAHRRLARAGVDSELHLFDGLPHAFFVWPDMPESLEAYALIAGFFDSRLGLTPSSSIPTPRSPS
Kind of test: esterase kinetics. Type of test: biochemical. Particulars: 25 °C.

As for `CCCC(=O)Oc1ccc([N+](=O)[O-])cc1` [p-nitrophenyl butyrate], the Michaelis-Menten constant (Km) amounted to 450 µM.

As usually defined, the Km is the concentration of substrate that gives half-maximal velocity.
